According to US20250388534A1 (SHENZHEN SHINEHIGH INNOVATION CO., LTD., priority 2022, published 2025):
Values joined by “and” are separate entries in the source; they are usually repeats but may differ in a detail not shown here. Equal entries are not always repeated.

Experiments:
[1] = Thermogravimetric analysis of thermal decomposition behavior; assay type: physicochemical; settings: heating rate 5.0 K/min, FIG. 2
[2] = system: tyrosinase; test: In vitro tyrosinase inhibition assay (T-SHRH015-2018); assay type: biochemical; settings: for Cellular tyrosinase activity inhibition (%): in vitro tyrosinase inhibition assay
Experimental: (§1) And the cellular melanin content, tyrosinase activity, and tyrosinase inhibition rate are tested within a safe concentration.

[3] = target: T1, cellular tyrosinase (Mus musculus, UniProt P11344); test: Cellular tyrosinase activity inhibition assay in B16 cells; assay type: cell-based
T1 construct: endogenous in cells; host or cells: B16 melanoma cells
T1 sequence (P11344 19-533): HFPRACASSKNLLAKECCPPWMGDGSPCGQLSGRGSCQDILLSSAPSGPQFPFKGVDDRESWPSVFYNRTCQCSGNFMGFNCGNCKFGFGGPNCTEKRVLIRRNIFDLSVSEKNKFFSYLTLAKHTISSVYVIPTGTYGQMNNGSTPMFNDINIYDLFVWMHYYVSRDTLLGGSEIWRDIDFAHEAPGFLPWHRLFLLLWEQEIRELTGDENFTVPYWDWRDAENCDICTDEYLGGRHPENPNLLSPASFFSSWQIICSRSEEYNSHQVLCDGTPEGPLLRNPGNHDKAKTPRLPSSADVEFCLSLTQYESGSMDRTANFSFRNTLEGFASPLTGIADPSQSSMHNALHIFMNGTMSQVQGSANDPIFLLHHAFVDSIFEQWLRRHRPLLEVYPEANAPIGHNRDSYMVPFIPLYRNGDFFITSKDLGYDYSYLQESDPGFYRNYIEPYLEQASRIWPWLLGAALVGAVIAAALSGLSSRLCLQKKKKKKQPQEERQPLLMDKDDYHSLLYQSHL
Experimental: as §1

[4] = system: melanin synthesis in B16 cells; test: Inhibition of melanin synthesis in B16 cells (T/SHRH027-2019); assay type: cell-based
Experimental: as §1

[5] = ABTS+⋅ scavenging rate determination; settings: 50 to 250 μg/mL, FIG. 7
Experimental: (§2) The DPPH⋅ radical scavenging rate and ABTS^+⋅ scavenging rate are measured, and the test methods are as follows.
ABTS^+⋅ scavenging rate determination: ABTS solution (7 mmol/L) and potassium persulfate solution (2.45 mmol/L) are mixed in a 1:1 (v/v) ratio and shaken to prepare the ABTS stock solution, which is allowed to sit at room temperature for 12 h to 16 h (protected from light). Then, the ABTS stock solution is diluted with a phosphate buffer solution of 10 mmol/L and pH 7.4, and the absorbance A0 of the diluted solution is measured at a wavelength of 734 nm, aiming to reach 0.70±0.002. For each sample solution at different mass concentrations, 50 μL is taken and mixed with 750 μL of the ABTS assay solution. The mixture is thoroughly mixed and allowed to react for 6 min. The absorbance is measured at a wavelength of 734 nm as A1, with an absolute ethanol solution used in place of the ABTS solution to measure the absorbance as A2. VC is used as a positive control during the test, and the calculation of the ABTS^+⋅ scavenging rate follows Formula (2).

[6] = DPPH⋅ radical scavenging rate determination; settings: 50 to 250 μg/mL, FIG. 6
Experimental: as §2
DPPH⋅ radical scavenging rate determination: For each sample solution at different mass concentrations, 0.2 mL is taken and mixed with 0.8 mL of a 60 μmol/L DPPH⋅ solution (prepared with absolute ethanol). The mixture is then reacted for 30 min in the dark, and the absorbance is measured at a wavelength of 517 nm as A1. The absorbance using 70% ethanol solution instead of the sample is measured as A0, and the absorbance using absolute ethanol instead of the DPPH⋅ solution is measured as A2. VC is used as a positive control during the test. The calculation of the DPPH⋅ radical scavenging rate is shown in Formula (2): […]

[7] = system: IL-1α; test: TPA-induced mouse ear edema model, IL-1α in ear tissue by ELISA; assay type: in vivo, mice; settings: salt 0.8 mg/ear, mandelic acid 0.39 mg/ear
Experimental: (§3) TPA-induced mouse ear edema model and administration method. Male KM mice of SPF grade weighing 20 g to 23 g are acclimatized at a temperature of 25° C. and a relative humidity of 40% to 70% for 24 h (12 h each under alternating light and dark conditions), and given sufficient food and water to allow them to eat freely. The mice are randomly divided into 6 groups: blank group (BC), negative control group (NC), positive control group (PC), and 2 treatment groups. […] After 6 h, the mice are immediately killed by breaking their necks. The ear tissues are ground in liquid nitrogen, then ground tissues are transferred to a 4 mL EP tube, and 1 mL of T-PER tissue protein extraction reagent is added. The solution is mixed thoroughly for about 30 min, and then subjected to intermittent sonication for 10 s at 20 Hz, followed by 2 min of ultrasonic treatment to fully lyse the ear tissues. The mixture is centrifuged at 4° C. and 13000 r/min for 20 min. Supernatants are collected to determine the levels of the inflammatory factors IL-1α, TNF-α, and MIP-2 in ear tissues using the ELISA method.

[8] = system: chick embryo chorioallantoic membrane (CAM); test: Eye irritation/corrosion chick embryo chorioallantoic membrane assay (irritation score IS)
Experimental: The test method is as follows.
Preparation of CAM: The viability of 9-day-old chick embryos is checked using fertilized eggs. The shell of the air cell is removed using dental serrated forceps to expose the white egg membrane, with care taken to avoid damaging the integrity of the membrane. A drop of 0.9% sodium chloride solution is added with a pipette to moisten the membrane. The inner membrane is carefully removed with forceps, ensuring that the vascular membrane is not damaged. At this point, the structure of the vascular system is observed again, and a judgment is made regarding its integrity and suitability for the test.
Pre-test: Two chick embryos are taken to assess the reactivity of this batch, with the duration of action limited to within 5 min. […]
Reaction evaluation method: 0.3 mL or 0.3 g of the test substance is applied to the CAM, ensuring that at least 50% of the CAM surface is covered by the test substance. The reaction of the CAM is observed, and the time at which each type of toxicity effect appears within 5 min of application is recorded.
The irritation score (IS) is a test conducted using the reaction time method, with the irritation score (IS) calculated using Formula (3), and the results are retained to two decimal places: […]
secH (bleeding time) refers to the average time observed for bleeding to begin on the CAM membrane, measured in seconds(s). secL (vascular lysis time) refers to the average time observed for vascular lysis to begin on the CAM membrane, measured in seconds(s). secC (clotting time) refers to the average time observed for clotting to begin on the CAM membrane, measured in seconds(s).

[9] = system: MIP-2; test: TPA-induced mouse ear edema model, MIP-2 in ear tissue by ELISA; assay type: in vivo, mice; settings: salt 0.8 mg/ear, mandelic acid 0.39 mg/ear
Experimental: as §3

[10] = system: TNF-α; test: TPA-induced mouse ear edema model, TNF-α in ear tissue by ELISA; assay type: in vivo, mice; settings: salt 0.8 mg/ear, mandelic acid 0.39 mg/ear
Experimental: as §3

[11] = system: melanoma cells (B16); test: Cytotoxicity test by melanoma cells (B16); assay type: cell-based; settings: PC 10% DMSO
[12] = 0.0006%, 0.0012%, 0.002% (m/V), p<0.05 vs blank control
[13] = mean of R1-R3, mouse ear tissue 6 h after TPA 2.0 μg/ear
[14] = mouse ear tissue, 6 h after TPA
[15] = replicate R1, mouse ear tissue 6 h after TPA 2.0 μg/ear
[16] = replicate R3, mouse ear tissue 6 h after TPA 2.0 μg/ear
[17] = reaction time method, single chick embryos 1-6, in s

Molecule: NC[C@H]1CC[C@H](C(=O)O)CC1 [tranexamic acid]
- temperature at which thermal decomposition behavior begins [1]: around 77 °C

Molecule: supramolecular tranexamic acid-citric acid ionic salt [Comparative Example 1]
- Cellular tyrosinase activity inhibition (%) ([2]; 0.625 % m/V): 5.36%
- Cellular tyrosinase activity inhibition (%) ([2]; 1.25 % m/V): 60.49%
- Cellular tyrosinase activity inhibition (%) ([2]; 2.50 % m/V): 65.38%
- Cellular tyrosinase activity inhibition (%) ([2]; 5 % m/V): 67.57%
- Cellular tyrosinase activity inhibition (%) ([2]; 10 % m/V): 69.99%
- inhibition rate on tyrosinase ([2]; in vitro, concentrations of 1.25 to 10% (m/V)): above 60%
- Cellular tyrosinase activity inhibition (%) ([3]; 0.0006% m/V): 2.17%
- effect on cellular tyrosinase activity [3, 12]: had an inhibitory effect on cellular tyrosinase activity
- Cellular tyrosinase activity inhibition (%) ([3]; 0.0012% m/V): 10.05%
- Cellular tyrosinase activity inhibition (%) ([3]; 0.0020% m/V): 11.26%
- Inhibition rate of cell melanin content (%) ([4]; 0.0006% m/V): 15.32%
- effect on cell melanin synthesis ability [4, 12]: had an inhibitory effect on the cell melanin synthesis ability
- Inhibition rate of cell melanin content (%) ([4]; 0.0012% m/V): 18.19%
- Inhibition rate of cell melanin content (%) ([4]; 0.0020% m/V): 22.51%

Molecule: O=C1O[C@H]([C@@H](O)CO)C(O)=C1O [VC]
- ABTS+⋅ scavenging effect (ranking) [5]: best scavenging effect
- DPPH⋅ radical scavenging effect (ranking) [6]: best scavenging effect

Molecule: O=C(O)C(O)c1ccccc1 (centres unmarked) [mandelic acid, a-hydroxyphenylacetic acid]
- IL-1α Concentration [7, 13]: 28.51 µg/mL
- level of IL-1α compared with the negative control group [7, 14]: decrease
- IL-1α concentration, R1 [7, 15]: 28.59 µg/mL
- IL-1α concentration, R3 [7, 16]: 29.31 µg/mL
- irritation classification ([8]; 2% aqueous solution of the salt, equivalent molar mandelic acid solution, CAM assay): mild irritation
- Test result: IS ([8]; overall irritation score of 6 chick embryos): IS = 1.03
- Bleeding severity score ([8]; reaction time method, single chick embryos 1-6): 301 s
- Coagulation score [8, 17]: 301 and 290 and 250
- Vascular lysis score [8, 17]: 260 and 280 and 290 and 301 and 210
- MIP-2 Concentration [9, 13]: 50.82 µg/mL
- level of MIP-2 compared with the negative control group [9, 14]: decrease
- MIP-2 concentration, R1 [9, 15]: 51.32 µg/mL
- MIP-2 concentration, R3 [9, 16]: 50.98 µg/mL
- ABTS+⋅ scavenging effect (ranking) [5]: weakest effect
- DPPH⋅ radical scavenging effect (ranking) [6]: weakest effect
- TNF-α Concentration [10, 13]: 85.98 µg/mL
- level of TNF-α compared with the negative control group [10, 14]: decrease
- TNF-α concentration, R1 [10, 15]: 85.34 µg/mL
- TNF-α concentration, R3 [10, 16]: 88.27 µg/mL
- temperature at which thermal decomposition behavior begins [1]: ~135 °C

Molecule: C[S+](C)[O-] [DMSO]
- Cell viability (%) [11]: 40.26% and 39.46%
